“And” between values parts separate entries of the source, which are not always exact repeats. Equal values may be shown once. Read-outs that look alike come from different tables or passages of the source.
Assays:
H1650 = experiment: Non Small Cell Lung Cancer proliferation assay (Alamar Blue reduction), H1650; format: cell-based, human; settings: for inhibition at 10 µM: NCI-H1650, primary screening, H1650, read-out: PRIMARY HTS [%] H1650 (percentage inhibition); for inhibition at 10 µM / CONFIRMATION [%] 1650: 10 μM compound in 1% DMSO (v/v); for CONFIRMATION [%] 1650: percentage inhibition
Outline: (§1)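 Dose-response run: cells were counted, dispensed at 250 cells/well onto compound, incubated 48 hours at 37° C, then incubated with Alamar Blue for an additional 48 hours before fluorescence measurement. All wells held 1% DMSO final.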

H1975 = experiment: Non Small Cell Lung Cancer proliferation assay (Alamar Blue reduction), H1975; format: cell-based, human; settings: for inhibition at 10 µM / IC50: Homo sapiens; for inhibition at 10 µM: NCI-H1975, primary screening, H1975, read-out: PRIMARY HTS [%] H1975 (percentage inhibition); for inhibition at 10 µM / CONFIRMATION [%] 1975: 10 μM compound in 1% DMSO (v/v); for CONFIRMATION [%] 1975: percentage inhibition
Outline: as §1

H2030 = experiment: Non Small Cell Lung Cancer proliferation assay (Alamar Blue reduction), H2030; format: cell-based, human; settings: for inhibition at 10 µM / IC50: Homo sapiens; for inhibition at 10 µM: NCI-H2030, primary screening, H2030, read-out: PRIMARY HTS [%] H2030 (percentage inhibition); for inhibition at 10 µM / CONFIRMATION [%] 2030: 10 μM compound in 1% DMSO (v/v); for CONFIRMATION [%] 2030: percentage inhibition
Outline: as §1

H3255 = experiment: Non Small Cell Lung Cancer proliferation assay (Alamar Blue reduction), H3255; format: cell-based, human; settings: for inhibition at 10 µM / IC50: Homo sapiens; for inhibition at 10 µM: NCI-H3255, primary screening, H3255, read-out: PRIMARY HTS [%] H3255 (percentage inhibition); for inhibition at 10 µM / CONFIRMATION [%] 3255: 10 μM compound in 1% DMSO (v/v); for CONFIRMATION [%] 3255: percentage inhibition
Outline: as §1

[1] = system: NHBE (normal human bronchiolar epithelial cells); experiment: cells; settings: Homo sapiens, NHBE, read-out: IC50(uM) NHBE, phenylfuran-2-carboxamide SAR summary
Method: (§2) NHBE (normal human bronchiolar epithelial cells) are primary cells obtained from donor lungs and commercially available from Cambrex. The HPL1D (human peripheral lung epithelial) cell line has been immortalized with the SV40 large T-antigen. WI-38: human lung fibroblast cell line. HPLID, NHBE and WI-38 cells will serve as controls in the chemical screens. WT: wildtype; WT*: over-expressed wildtype.
(§3) Compounds were tested in dose response studies from […] to 5 nM against several non small cell lung cancer lines: H358, H827, H1118, H1650, H1734, H1975, H2030, and H3255, and were also studied in a 72 hour cytotoxicity assay against the NHBE and WI-38 cell lines.

H358 = experiment: Non Small Cell Lung Cancer proliferation assay (Alamar Blue reduction), H358; format: cell-based; settings: Homo sapiens, NCI-H358; read-out: Dose Response (uM) H358
Method: (§4) These cells have a doubling time of 1-2 days. All cell types are adherent and grow in colonies. The cells should be kept at a density between 50,000 cells/mL -500,000 cells/mL to provide for optimum growth and adequate nutrition. The cell line should be maintained at 37° C. in a humidified atmosphere with 5% CO2 in a sterile cell culture incubator.
(§5) Non Small Cell Lung Cancer Proliferation Assay.
(§6) High Controls for this assay are made by treating Non Small Cell Lung Cancer cells with 5 ul of 10% DMSO. [Final concentration in this assay is 1% DMSO].
(§7) Important Note: All compounds for testing in this assay should be done at the final concentration of 1% DMSO.
(§8) After addition, the cells are placed in cell culture incubator at 37° C. for 48 hours for complete treatment.
(§9) After drug treatment, cytotoxicity is measured by Alamar Blue reduction.
(§10) The cells are incubated for 48 hours at 37° C. to complete the Alamar Blue reduction.
(§11) The final step in the assay is to measure the amount of Alamar Blue reduction. […] The Alamar Blue fluorescence is measured at an excitation of 530 nm and emission of 590 nm.
(§12) For the NSCLC project, the cell based assay was screened against a small molecule library of approximately 200,000 compounds. The compound library is stored in our automated robotic freezer (Biophile) at −20° C. in 100% DMSO. Compound freeze and thaw cycles are kept to a minimum. […] This assay was performed on a fully automated linear track robotic platform (CRS F3 Robot System, Thermo Electron Corp., Ontario, Canada) utilizing several integrated peripherals for plate handling, liquid dispensing, and readout detection. […] The microplates are then placed at 37° C. for 48 hours to complete treatment of cells with compounds. Next, 5 ul of alamar blue was added using a liquid dispenser (Flexprop Precision Dispenser, Perkin Elmer, Mass., USA) and incubated for 48 hours at 37° C. The alamar blue prompt fluorescence was measured on Victor V (Victor^3 V, Perkin Elmer, Mass., USA) and output data files were loaded into ORIS (Oncology Research Informatics System, MSKCC, NY, USA), a screening data acquisition and analysis platform.
(§13) The dose response studies were done with the following standard procedure. First, the cells were counted and dispensed at 250 cells/well into 384-well microplates with compound. The cells were incubated for 48 hours at 37 C to complete treatment, and then alamar blue was added for an additional 48 hours. Finally, alamar blue reduction was measured and the data was loaded into ORIS, our data screening acquisition platform.

H827 = experiment: Non Small Cell Lung Cancer proliferation assay (Alamar Blue reduction), H827; format: cell-based; settings: Homo sapiens; read-out: Dose Response (uM) H827
Method: as §4, with “[…] are grown and maintained in Corning 175 cm2 flasks in RPMI 1640 media supplemented with 10% FBS, 1% antibiotic solution, 1% additional glutamine and pyruvate. These” for “These”
(§14) Non Small Cell Lung Cancer Proliferation Assay. To perform the assay, the Non Small Cell Lung Cancer lines are diluted in media and plated into 384 well microplates at a final density of 250 cells in […]. To ensure consistency and minimal pipetting error, the cells are plated using the Multidrop 384 with the following settings: Rocker Switch set at 384, Volume 45 and Column 24.
(§15) Low Controls for this assay are made by treating Non Small Cell Lung Cancer cells with 5 ul of staurosporine at 250 uM in 10% DMSO and 1% SDS. [Final concentration in this assay is 25 uM staurosporine in 1% DMSO and 0.1% SDS.]
as §6
(§16) The remaining wells of the 384 microplate may be treated with different compounds depending on the study. Important Note: All compounds for testing in this assay should be done at the final concentration of 1% DMSO.
as §8
(§17) After drug treatment, cytotoxicity is measured by Alamar Blue reduction. 5 μL of Alamar Blue is added to the 384 microplates using the Flexdrop.
as §10, §11
(§18) For the NSCLC project, the cell based assay was screened against a small molecule library of approximately 200,000 compounds. The compound library is stored in our automated robotic freezer (Biophile) at −20° C. in 100% DMSO. Compound freeze and thaw cycles are kept to a minimum. Compounds for use are diluted into the appropriate concentration and plated into 384 well microplates using our custom built low volume 384-well head tool (TPS 384, Apricot Designs Inc., CA, USA). This assay was performed on a fully automated linear track robotic platform (CRS F3 Robot System, Thermo Electron Corp., Ontario, Canada) utilizing several integrated peripherals for plate handling, liquid dispensing, and readout detection. First, non-small cell lung cancer cell lines are dispensed into 384 well microplates (Corning #3712 Tissue Culture Treated Plate, Corning, N.Y., USA) with 5 μL of test compounds at 100 uM in 10% DMSO for screening studies or […] in 10% DMSO to 50 nM in 10% DMSO for dose response studies. The microplates are then placed at 37° C. for 48 hours to complete treatment of cells with compounds. Next, 5 ul of alamar blue was added using a liquid dispenser (Flexprop Precision Dispenser, Perkin Elmer, Mass., USA) and incubated for 48 hours at 37° C. The alamar blue prompt fluorescence was measured on Victor V (Victor^3 V, Perkin Elmer, Mass., USA) and output data files were loaded into ORIS (Oncology Research Informatics System, MSKCC, NY, USA), a screening data acquisition and analysis platform.

H1118 = experiment: Non Small Cell Lung Cancer proliferation assay (Alamar Blue reduction), H1118; format: cell-based; settings: Homo sapiens; read-out: Dose Response (uM) H1118
Method: as §14, §15, §6, §16, §8, §17, §10, §11, §18, §13

H1734 = experiment: Non Small Cell Lung Cancer proliferation assay (Alamar Blue reduction), H1734; format: cell-based, human; settings: Homo sapiens, NCI-H1734; read-out: Dose Response (uM) H1734
Method: as §4, §5, §6, §7, §8, §9, §10, §11, §12, §13

in vitro = settings: human
Method: as §2, §3

[2] = Homo sapiens, NCI-H1650, phenylfuran-2-carboxamide SAR summary, read-out: IC50(uM) 1650
[3] = Homo sapiens, NCI-H1650, dose response 10 M to 5 nM, IC50, read-out: Dose Response (uM) H1650
[4] = NCI-H1975, dose response 10 M to 5 nM, IC50, read-out: Dose Response (uM) H1975
[5] = NCI-H2030, dose response 10 M to 5 nM, IC50, read-out: Dose Response (uM) H2030
[6] = NCI-H3255, dose response 10 M to 5 nM, IC50, read-out: Dose Response (uM) H3255

SMILES | IC50 (H1650; [2]) | inhibition at 10 µM (H1650; Homo sapiens) | CONFIRMATION [%] 1650 (H1650) | inhibition at 10 µM (H1975) | CONFIRMATION [%] 1975 (H1975) | inhibition at 10 µM (H2030) | CONFIRMATION [%] 2030 (H2030) | inhibition at 10 µM (H3255) | CONFIRMATION [%] 3255 (H3255) | IC50 [1] | IC50 (H1650; [3]) | IC50 (H1975; [4]) | IC50 (H2030; [5]) | IC50 (H3255; [6]) | IC50 (H358) | IC50 (H827) | IC50 (H1118) | IC50 (H1734) | IC50 at 72 h (in vitro; CytoTox (uM) NHBE) | IC50 at 72 h (in vitro; CytoTox (uM) WI-38) | further results
O=C(Nc1ccc(Cl)cc1C(F)(F)F)c1ccc([N+](=O)[O-])o1 [compound 64228] | 1.6 µM | 87% | 111% and 107% | 82% | 70% and 97% | 93% | 90% and 105% | 91% | 97% | 13.2 µM | – | – | – | – | – | – | – | – | – | – | IC50 (H1650; phenylfuran-2-carboxamide SAR summary, read-out: IC50(uM) 1650): 2.31 µM
O=C(NC1CCCCC1)c1ccc([N+](=O)[O-])o1 [compound 71763] | 1.39 µM | 87% | 136% | 61% | 74% | 82% | 97% | 77% | 135% | 24.9 µM | – | – | – | – | – | – | – | – | – | – | IC50 (H1975; NCI-H1975, phenylfuran-2-carboxamide SAR summary, read-out: IC50(uM) 1975): 3.54 µM; IC50 (H2030; NCI-H2030, phenylfuran-2-carboxamide SAR summary, read-out: IC50(uM) 2030): 3.79 µM; IC50 (H3255; NCI-H3255, phenylfuran-2-carboxamide SAR summary, read-out: IC50(uM) 3255): 2.98 µM
O=c1c(Cl)c(SCc2ccccc2)cnn1-c1ccccc1 [compound 257022] | – | – | – | – | – | – | – | – | – | – | > 10 µM | > 10 µM | > 10 µM | > 10 µM | > 10 µM | > 10 µM | > 10 µM | > 10 µM | > 10 µM | > 10 µM | –
CN/N=C1\C=NN(c2ccc(C)cc2)C(=O)C1Cl (centres unmarked) [compound 257025] | – | – | – | – | – | – | – | – | – | – | > 10 µM | > 10 µM | > 10 µM | > 10 µM | > 10 µM | > 10 µM | > 10 µM | > 10 µM | > 10 µM | > 10 µM | –
